IC50 data for 26 molecules are collected here from patent US8629168B2, “Benzoxazoles and oxazolopyridines being useful as janus kinases inhibitors” (priority 2006, dated 2014).

Broadly, the IC50 is the concentration needed to halve the response being measured.

SMILES strings stand for the structures.

The first assay deals with T1, GST-JAK2 (Homo sapiens, UniProt O60674).
T1 construct: the amino acid domain ASP751-VAL1129 of the JAK2 protein
T1 sequence (O60674 751-1129): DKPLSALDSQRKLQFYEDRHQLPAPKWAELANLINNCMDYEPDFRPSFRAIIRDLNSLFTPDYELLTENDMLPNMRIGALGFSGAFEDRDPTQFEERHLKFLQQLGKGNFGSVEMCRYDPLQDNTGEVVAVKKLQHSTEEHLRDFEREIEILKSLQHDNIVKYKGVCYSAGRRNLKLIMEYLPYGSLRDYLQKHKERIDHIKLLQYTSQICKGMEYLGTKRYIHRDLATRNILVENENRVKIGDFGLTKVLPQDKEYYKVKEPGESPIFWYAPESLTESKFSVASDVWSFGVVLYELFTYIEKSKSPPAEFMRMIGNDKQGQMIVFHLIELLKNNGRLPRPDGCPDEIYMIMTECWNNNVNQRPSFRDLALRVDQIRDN
Briefly: JAK2 kinase assay of the general description (alternative method, flash plate). It counts as biochemical. To be noted: 1.0 μM ATP, read-out: IC50 with test in general description (named “alternative method to that given in the examples”) (“flash plate”). As for the experimental part:
Baculovirus including the amino acid domain ASP751-VAL1129 of the JAK2 protein is obtainable by ProQinase, Freiburg, Germany. The virus is scaled up as following: Virus containing media is collected from the transfected cell culture and used for infection to increase its titer. Virus containing media obtained after two rounds of infection is used for large-scale protein expression. For large-scale protein expression 100 cm^2 round tissue culture plates are seeded with 5×10^7 cells/plate and infected with 1 mL of virus-containing media (approx. 5 MOIs). After 3 days the cells are scraped off the plate and centrifuged at 500 rpm for 5 min. Cell pellets from 10-20, 100 cm^2 plates, are re-suspended in 50 mL of ice-cold lysis buffer (25 mMTris-HCl, pH7.5, 2 mMEDTA, 1% NP-40, 1 mM DTT, 1 mMP MSF). The cells are stirred on ice for 15 min and then centrifuged at 5000 rpms for 20 min. The protein is purified by loading the centrifuged cell lysate onto a 2 mL glutathione-sepharose column and washed three times with 10 mL of 25 mM Tris-HCl, pH 7.5, 2 mM EDTA, 1 mM DTT, 200 mM NaCl. The GST-tagged proteins are then eluted by 10 applications (1 mL each) of 25 mM Tris-HCl, pH 7.5, 10 mM reduced-glutathione, 100 mM NaCl, 1 mM DTT, 10% Glycerol and stored at −70° C.
Cancer Cell; 5: 231-239]. The test compound is dissolved in DMSO (10 mM) and stored at −20° C. Serial dilutions are freshly made in DMSO and are […] concentrated than test solutions (“pre-dilution plates”). They are further diluted with pure water to yield “master plates” containing 3 times concentrated test solutions in 3% DMSO. The final volume of the assay is 30 μL containing 10 μL of test solution (1% DMSO), 10 μL assay mix including the assay components described by Garcia-Echeverria (2004) and in the following section as well as 10 μL enzyme. The pipetting steps can be programmed to be performed either on the MultiPROBE Iix, MultiPROBE IILx or HamiltonSTAR robots in the 96 well format.
The protein kinase assays are carried as described in details by Garcia-Echeverria (see above). The assay for JAK2 is carried out in 96-well plates at ambient temperature for 10 min (filter-biding method) or 30 min (flash plates) in a finial volume of 30 μL including the following components: 300 ng of GST-JAK2, 20 mM Tris-HCl, pH 7.5, 1.0 mM MnCl2, 10 mM MgCl2, 1 mM DTT, 3 μg/mL poly(Glu, Tyr) 4:1, 1% DMSO and 1.0 μM ATP (γ-[^33P]-ATP 0.1 μCi); The assays are terminated by the addition of 20 μl of 125 mM EDTA. The capturing of the phosphorylated peptides by the filter-binding method is performed as following: 40 μL of the reaction mixture are transferred onto Immobilon-PVDF membranes previously soaked for 5 min with methanol, rinsed with water, then soaked for 5 min with 0.5% H3PO4 and mounted on vacuum manifold with disconnected vacuum source. After spotting all samples, vacuum is connected and each well rinsed with 200 μl 0.5% H3PO4. Free membranes are removed and washed 4× on a shaker with 1.0% H3PO4, once with ethanol. Membranes are counted after drying at ambient temperature, mounting in Packard TopCount 96-well frame, and addition of 10 μl/well of Microscint. The plates are eventually sealed and counted in a microplate scintillation counter (TopCount NXT, TopCount NXT HTS, PerkinElmer, Brussels, Belgium).
The assays for the flash plate method is carried out in a total volume of 30 μL at RT in conventional 96-well flash plates. The reaction is stopped after 30 min by the addition of 20 μL of 125 mM EDTA The assay plates are then washed three times with PBS and dried at room temperature. The plates are sealed and counted in a microplate scintillation counter (TopCount NXT, TopCount NXT HTS). IC50 values are calculated by linear regression analysis of the percentage inhibition of the compound either in duplicate, at four concentrations (usually 0.01, 0.1, 1 and 10 μM) or as 8 single point IC50 starting at 10 μM following by 1:3 dilutions.
Turning to `COc1cc(Nc2nc3cccc(-c4cccc(O)c4)c3o2)cc(OC)c1OC` [Example 6, [7-(3-Hydroxy-phenyl)-benzooxazol-2-yl]-(3,4,5-trimethoxy-phenyl)-amine], the IC50 was 178 nM.
The same measure, in the same setting: the same measure for `COc1cc(Nc2nc3cccc(-c4ccccc4N)c3o2)cc(OC)c1OC` [Example 14, [7-(2-Amino-phenyl)-benzooxazol-2-yl]-(3,4,5-trimethoxy-phenyl)-amine]: 610 nM; for `COc1cc(Nc2nc3cccc(-c4ccc(NS(C)(=O)=O)cc4)c3o2)cc(OC)c1OC` [Example 26, N-{4-[2-(3,4,5-Trimethoxy-phenylamino)-benzooxazol-7-yl]-phenyl}-methanesulfonamide]: 52 nM.
Take `COc1cc(Nc2nc3cccc(-c4ccc(NC(C)=O)cc4)c3o2)cc(OC)c1OC` [Example 27, N-{4-[2-(3,4,5-Trimethoxy-phenylamino)-benzooxazol-7-yl]-phenyl}-acetamide]: the concentration for half-maximal inhibition (IC50) came out at 200 nM.
As to `COc1cc(Nc2nc3cccc(-c4ccc(CN)cc4)c3o2)cc(OC)c1OC` [Example 29, [7-(4-Aminomethyl-phenyl)-benzooxazol-2-yl]-(3,4,5-trimethoxy-phenyl)-amine], the IC50 stood at 250 nM.
`COc1cc(Nc2nc3cccc(-c4ccc(CNC(C)=O)cc4)c3o2)cc(OC)c1OC` [Example 30, N-{4-[2-(3,4,5-Trimethoxy-phenylamino)-benzooxazol-7-yl]-benzyl}-acetamide]: the IC50 came to 41 nM.
With `COc1cc(Nc2nc3cccc(-c4ccc(CNS(C)(=O)=O)cc4)c3o2)cc(OC)c1OC` [Example 31, N-{4-[2-(3,4,5-Trimethoxy-phenylamino)-benzooxazol-7-yl]-benzyl}-methanesulfonamide], the IC50 was 60.5 nM.
Same read-out and setting: the same measure for `CNC(=O)c1cc(-c2cccc3nc(Nc4cc(OC)c(OC)c(OC)c4)oc23)cs1` [Example 34, 4-[2-(3,4,5-Trimethoxy-phenylamino)-benzooxazol-7-yl]-thiophene-2-carboxylic acid methylamide]: 540 nM.
`COc1cc(Nc2nc3cccc(-c4ccc5[nH]cnc5c4)c3o2)cc(OC)c1OC` [Example 35, [7-(1H-Benzoimidazol-5-yl)-benzooxazol-2-yl]-(3,4,5-trimethoxy-phenyl)-amine]: the IC50 stood at 120 nM.
On the same count and under the same terms, the same measure for `COc1cc(Nc2nc3ccnc(-c4ccc(N)cc4)c3o2)cc(OC)c1OC` [Example 36, [4-(4-Amino-phenyl)-oxazolo[5,4-c]pyridin-2-yl]-(3,4,5-trimethoxy-phenyl)-amine]: 120 nM; for `Nc1cccc(-c2cccc3nc(Nc4ccc(N5CCOCC5)cc4)oc23)c1` [Example 43, [7-(3-Amino-phenyl)-benzooxazol-2-yl]-(4-morpholin-4-yl-phenyl)-amine]: 1900 nM; for `COc1cc(Nc2nc3cccc(-c4ccccc4C)c3o2)cc(OC)c1OC` [Example 44, (7-o-Tolyl-benzooxazol-2-yl)-(3,4,5-trimethoxy-phenyl)-amine]: 930 nM.
As for `COc1cc(Nc2nc3cccc(-c4cccc(C#N)c4)c3o2)cc(OC)c1OC` [Example 45, 3-[2-(3,4,5-Trimethoxy-phenylamino)-benzooxazol-7-yl]-benzonitrile], the IC50 is 950 nM.
The same measure, in the same setting: the same measure for `COc1cc(Nc2nc3cccc(-c4ccccn4)c3o2)cc(OC)c1OC` [Example 46, (7-Pyridin-2-yl-benzooxazol-2-yl)-(3,4,5-trimethoxy-phenyl)-amine]: 350 nM.
The same measure, in the same setting: the same measure for `COc1cc(Nc2nc3cccc(-c4cccc(C(N)=O)c4)c3o2)cc(OC)c1OC` [Example 47, 3-[2-(3,4,5-Trimethoxy-phenylamino)-benzooxazol-7-yl]-benzamide]: 593 nM; for `COc1cc(Nc2nc3cccc(-c4cccc([N+](=O)[O-])c4)c3o2)cc(OC)c1OC` [Example 48, [7-(3-Nitro-phenyl)-benzooxazol-2-yl]-(3,4,5-trimethoxy-phenyl)-amine]: 700 nM.
The same measure, in the same setting: the same measure for `COc1cc(Nc2nc3cccc(-c4cccc(S(C)(=O)=O)c4)c3o2)cc(OC)c1OC` [Example 49, [7-(3-Methanesulfonyl-phenyl)-benzooxazol-2-yl]-(3,4,5-trimethoxy-phenyl)-amine]: 520 nM; for `CNS(=O)(=O)c1cccc(-c2cccc3nc(Nc4cc(OC)c(OC)c(OC)c4)oc23)c1` [Example 50, N-Methyl-3-[2-(3,4,5-trimethoxy-phenylamino)-benzooxazol-7-yl]-benzene-sulfonamide]: 610 nM.
With `COc1ccc(-c2cccc3nc(Nc4cc(OC)c(OC)c(OC)c4)oc23)cc1[N+](=O)[O-]` [Example 51, [7-(4-Methoxy-3-nitro-phenyl)-benzooxazol-2-yl]-(3,4,5-trimethoxy-phenyl)-amine], the IC50 turned out to be 450 nM.
Same read-out and setting: the same measure for `COc1cc(Nc2nc3cccc(-c4ccc(Cl)c(N)c4)c3o2)cc(OC)c1OC` [Example 52, [7-(3-Amino-4-chloro-phenyl)-benzooxazol-2-yl]-(3,4,5-trimethoxy-phenyl)-amine]: 150 nM; for `COc1ccc(-c2cccc3nc(Nc4cc(OC)c(OC)c(OC)c4)oc23)cc1N` [Example 53, [7-(3-Amino-4-methoxy-phenyl)-benzooxazol-2-yl]-(3,4,5-trimethoxy-phenyl)-amine]: 557 nM; for `COc1cc(Nc2nc3cccc(-c4ccc(N(C)C)cc4)c3o2)cc(OC)c1OC` [Example 54, [7-(4-Dimethylamino-phenyl)-benzooxazol-2-yl]-(3,4,5-trimethoxy-phenyl)-amine]: 350 nM.
The same measure, in the same setting: to `COc1cc(Nc2nc3cccc(-c4cccc(NS(C)(=O)=O)c4)c3o2)cc(OC)c1OC` [Example 55, N-{3-[2-(3,4,5-Trimethoxy-phenylamino)-benzooxazol-7-yl]-phenyl}-methanesulfonamide] belongs 420 nM.
As to `COCCNC(=O)c1ccc(Nc2nc3cccc(-c4ccc(S(N)(=O)=O)cc4)c3o2)cc1` [Example 56, N-(2-Methoxy-ethyl)-4-[7-(4-sulfamoyl-phenyl)-benzooxazol-2-ylamino]-benzamide], the IC50 came to 110 nM.
Regarding `CNS(=O)(=O)c1ccc(-c2cccc3nc(Nc4ccc(OC)c(OC)c4)oc23)cc1` [Example 59, 4-[2-(3,4-Dimethoxy-phenylamino)-benzooxazol-7-yl]-N-methyl-benzenesulfonamide], the IC50 turned out to be 41 nM.
In the case of `CNC(=O)Cc1ccc(-c2cccc3nc(Nc4cc(OC)c(OC)c(OC)c4)oc23)cc1` [Example 61, N-Methyl-2-{4-[2-(3,4,5-trimethoxy-phenylamino)-benzooxazol-7-yl]-phenyl}-acetamide], the IC50 is 87 nM.

For a further assay, the target named is T2, GST-JAK2(808-1132) (Homo sapiens, UniProt O60674).
T2 construct: GST-JAK2(808-1132) is purchased from Invitrogen; purchased Invitrogen (Carlsbad, USA) #4288
T2 sequence (O60674 808-1132): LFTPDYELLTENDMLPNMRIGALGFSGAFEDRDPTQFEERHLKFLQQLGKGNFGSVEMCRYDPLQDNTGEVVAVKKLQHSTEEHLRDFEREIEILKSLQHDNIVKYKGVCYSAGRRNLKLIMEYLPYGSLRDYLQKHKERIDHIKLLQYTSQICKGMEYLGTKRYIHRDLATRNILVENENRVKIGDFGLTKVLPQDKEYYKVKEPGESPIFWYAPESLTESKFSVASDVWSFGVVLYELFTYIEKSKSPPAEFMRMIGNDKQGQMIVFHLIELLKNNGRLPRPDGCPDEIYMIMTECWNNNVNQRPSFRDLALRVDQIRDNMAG
Briefly: EPK JAK/TYK-kinase family profiling assay (Caliper mobility shift), JAK2. The following applies: Caliper mobility shift assay of Example 187, 20 μM ATP, read-out: IC50 with Test in present Example. It counts as biochemical. A digest of the protocol: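 Caliper mobility-shift assay with the GST-tagged kinase domain and a fluorescently labeled peptide substrate plus ATP, run 60 min at 30° C and then stopped with EDTA buffer. Turnover was taken as the substrate/product ratio. Compounds were tested at eight final concentrations from 10 to 0.003 μM.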
As to `COc1cc(Nc2nc3cccc(-c4ccc(CN)cc4)c3o2)cc(OC)c1OC` [Example 29, [7-(4-Aminomethyl-phenyl)-benzooxazol-2-yl]-(3,4,5-trimethoxy-phenyl)-amine], the IC50 was 66 nM.
Still for that read-out and setting: the same measure for `COc1cc(Nc2nc3cccc(-c4ccc(CNC(C)=O)cc4)c3o2)cc(OC)c1OC` [Example 30, N-{4-[2-(3,4,5-Trimethoxy-phenylamino)-benzooxazol-7-yl]-benzyl}-acetamide]: 21 nM; for `COc1cc(Nc2nc3cccc(-c4ccc(CNS(C)(=O)=O)cc4)c3o2)cc(OC)c1OC` [Example 31, N-{4-[2-(3,4,5-Trimethoxy-phenylamino)-benzooxazol-7-yl]-benzyl}-methanesulfonamide]: 16.2 nM.
On the same count and under the same terms, to `COCCNC(=O)c1ccc(Nc2nc3cccc(-c4ccc(S(N)(=O)=O)cc4)c3o2)cc1` [Example 56, N-(2-Methoxy-ethyl)-4-[7-(4-sulfamoyl-phenyl)-benzooxazol-2-ylamino]-benzamide] belongs 51 nM.
